{"source": "patent US9439897B2", "about": "“Use of psoralen derivatives and combination therapy for treatment of cell proliferation disorders” (IMMUNOLIGHT, LLC, priority 2014, dated 2016)", "key": {"[1]": {"test_system": "ErbB2+ breast cancer cell lines (BT474; SKBR3)", "assay": "Cell growth and viability assay (WST-1)", "type": "cell-based, human", "experimental": "(§1) UV irradiation was carried out in 6 or 96 well plate format in a UV Stratalinker 1800 (Statagene, LA Jolla, Calif.) at the UV doses indicated in the figures. Cell growth and viability assays were performed in a 96-well plate format in a final volume of 100 μl/well using the cell proliferation reagent WST-1 from Roche Diagnostics (Mannheim, Germany), as previously described. Details of the apoptosis assay have been previously described. Briefly, cells were treated in 12-well plates with 8MOP, UV irradiation, or lapatinib at the treatment conditions indicated in the Figure legends. Cells were harvested with trypsin-EDTA, and 5000 cells in final volume of 50 μl were sampled in 96-well microplates. Cells were directly stained with annexin V-PE and nexin 7-AAD in 1× Nexin Buffer in a 200 μl final reaction volume. After incubating at room temperature for 20 min, the reaction samples were analyzed in the Guava PCA-96-system (Guava Technology Inc. Hayward, Calif.)."}, "[2]": {"test_system": "ErbB2+ breast cancer cells (BT474; SKBR3)", "assay": "Apoptosis assay (annexin V-PE / 7-AAD)", "type": "cell-based, human", "experimental": "as §1"}, "ErbB2": {"test_system": "ErbB2", "assay": "Western blot analysis of ErbB2 signaling in ErbB2+ breast cancer cells", "type": "cell-based, human", "experimental": "(§2) Whole cell extracts were prepared by scraping cells off petri dishes, washing cell pellets 2× in phosphate buffered saline (PBS), and then re-suspending pellets in two-packed-cell volumes of RIPA buffer (150 mM NaCl, 50 mM Tris-HCl, pH 7.5, 0.25% (w/v) deoxycholate, 1% NP-40, 5 mM sodium orthovanadate, 2 mM sodium fluoride, and a protease inhibitor cocktail). Protein concentrations were determined using a modification of the Bradford method (Bio-Rad Labs, Hercules, Calif.). For Western blot analysis, equal amounts of proteins (25 to 50 μg) were resolved by either 7.5% or 4-15% gradient SDS polyacrylamide gel electrophoresis under reducing conditions as previously described. Proteins were transferred to nitrocellulose membranes and probed with primary antibodies specific for proteins of interest. After extensive washing, membranes were incubated with a secondary IRDye 800 conjugated anti-rabbit or mouse IgG, or Alexa Fluor 680 anti-rabbit IgG and proteins were visualized using the LI-COR Odyssey Infrared Imaging System (LI-COR, Inc., Lincoln, Nebr.)."}, "p85^ErbB2": {"test_system": "p85^ErbB2", "assay": "Western blot of phospho-p85ErbB2 in stably transfected T47D cells", "type": "cell-based, human", "settings": "p85 expressing T47D cells; 5 μM lapatinib or 5 μM 8MOP 4 hr, then UV irradiation", "experimental": "as §2\n(§3) The c-terminal fragment (p85^ErbB2) was generated based on ErbB2 open reading frames and sub-cloned into the pcDNA 3.1 (+) as previously described. HER2 negative T47D breast cancer cells were transfected with the p85 expressing vector using the Lipofectamine™ 2000 Reagent from Invitrogen (Carlsbad, Calif.) as previously described. […]"}, "MCF7 cells": {"test_system": "MCF7 cells", "assay": "Cell growth and viability assay (WST-1)", "type": "cell-based, human", "settings": "PUVA, 2.5 and 5 μM 8MOP; compared with ErbB2+ lines", "experimental": "as §1"}, "[3]": {"test_system": "human foreskin fibroblast cell line (HFF)", "assay": "Cell growth and viability assay (WST-1)", "type": "cell-based", "settings": "PUVA, 2.5 and 5 μM 8MOP; compared with ErbB2+ lines", "experimental": "as §1"}, "rBT474 and rSKBR3 cells": {"test_system": "rBT474 and rSKBR3 cells", "assay": "Cell growth and viability assay in lapatinib resistant cells", "type": "cell-based, human", "settings": "PUVA; cells maintained in 1 μM lapatinib; dose-dependent", "description": "ErbB2+(BT474; SKBR3) and ErbB2 negative (MCF-7; T47D) human breast cancer cell lines, and the human foreskin fibroblast (HFF) cell line were obtained from the American Type Culture Collection (Manassas, Va.). Lapatinib resistant breast cancer cells (rBT474; rSKBR3) were generated and maintained in culture as previously described. Cells were maintained in RPMI-1640 supplemented with 10% fetal bovine serum and L-glutamine from GIBCO (Grand Island, N.Y.) growing in a humidified atmosphere of 5% CO2 at 37° C. IRDye 800 conjugated affinity purified anti-rabbit IgG and anti-mouse IgG were from Rockland (Gilbertsville, Pa.). Alexa Fluor 680 goat anti-rabbit IgG were purchased from Molecular Probes (Eugene, Oreg.). Anti-PARP (Poly (ADP-ribose) Polymerase) monoclonal antibody was from BD PharMingen (San Jose, Calif.). 8-Methoxypsoralen (8MOP) and the 4G10 anti-phosphotyrosine (p-tyr) antibody were purchased from Sigma-Aldrich (St. Louis, Mo.). Monoclonal antibodies to c-ErbB2 and EGFR were purchased from Neo Markers (Union City, Calif.). […]\nUV irradiation was carried out in 6 or 96 well plate format in a UV Stratalinker 1800 (Statagene, LA Jolla, Calif.) at the UV doses indicated in the figures. […] After incubating at room temperature for 20 min, the reaction samples were analyzed in the Guava PCA-96-system (Guava Technology Inc. Hayward, Calif.)."}, "[4]": {"test_system": "EGFR, ErbB3, Akt, PARP in rBT474 and rSKBR3", "assay": "Western blot analysis in lapatinib resistant cells", "type": "cell-based, human", "experimental": "as §2"}, "T47D cells": {"test_system": "T47D cells", "assay": "Growth and apoptosis in T47D and p85ErbB2 transfected T47D cells", "type": "cell-based, human", "experimental": "as §1, §3"}}, "data": [{"smiles": "CCOc1cc2ncc(C#N)c(Nc3ccc(OCc4ccccn4)c(Cl)c3)c2cc1NC(=O)/C=C/CN(C)C", "note": "[neratinib]", "values": [{"measurement": "cell viability", "setting": "[1]; combination of 8-MOP, UVA irradiation and neratinib, each at sub-lethal doses", "value": "significantly enhanced inhibition"}, {"measurement": "apoptosis in ErbB2+ breast cancer cells", "setting": "[2]; neratinib at sub-lethal doses combined with PUVA", "value": "significantly increased"}, {"measurement": "total ErbB2 and ErbB3 protein expression", "setting": "ErbB2; neratinib in combination with UVA irradiation alone, more pronounced in SKBR3", "value": "further loss"}, {"measurement": "p-Akt (S473) expression", "setting": "ErbB2; neratinib treatment alone", "value": "loss"}, {"measurement": "total ErbB2 and ErbB3 protein levels", "setting": "ErbB2; neratinib treatment alone", "value": "marked reduction"}]}, {"smiles": "CS(=O)(=O)CCNCc1ccc(-c2ccc3ncnc(Nc4ccc(OCc5cccc(F)c5)c(Cl)c4)c3c2)o1", "note": "[lapatinib]", "values": [{"measurement": "p85ErbB2 phosphorylation", "setting": "p85^ErbB2", "value": "not inhibited"}]}, {"smiles": "COc1c2occc2cc2ccc(=O)oc12", "note": "[8MOP, 8-Methoxypsoralen]", "values": [{"measurement": "cell viability", "setting": "[1]; 8MOP alone, no UV irradiation", "value": "relatively little effect"}, {"measurement": "growth and viability of ErbB2+ breast cancer cell lines", "setting": "[1]; PUVA: 8MOP 4 hr pre-treatment, UVA irradiation (2J), 72 hr, dose-dependent", "value": "significantly inhibited"}, {"measurement": "growth and viability of MCF7 cells", "setting": "MCF7 cells", "value": "relatively less effect"}, {"measurement": "growth and viability of HFF cells", "setting": "[3]", "value": "relatively less effect"}, {"measurement": "apoptosis", "setting": "[2]; PUVA: 8MOP + UVA irradiation (2J), 72 hr", "value": "induction of apoptosis"}, {"measurement": "ErbB2 signaling", "setting": "ErbB2; 8MOP alone, no UV irradiation", "value": "relatively little effect"}, {"measurement": "phosphorylated forms of Akt and Erk1/2", "setting": "ErbB2; PUVA (8MOP + UVA)", "value": "inhibited"}, {"measurement": "steady-state protein levels of phosphorylated ErbB2", "setting": "ErbB2; PUVA (8MOP + UVA), dose-dependent", "value": "reduced"}, {"measurement": "total ErbB2 protein levels", "setting": "ErbB2; higher doses of PUVA therapy", "value": "reduced"}, {"measurement": "tumor cell growth and viability", "setting": "rBT474 and rSKBR3 cells", "value": "significantly reduced"}, {"measurement": "PARP cleavage product", "setting": "[4]; PUVA-treated lapatinib resistant tumor cells", "value": "increased"}, {"measurement": "expression of phosphorylated EGFR (Y992), ErbB3 (Y1197) and Akt (T308)", "setting": "[4]; PUVA-treated rBT474 and rSKBR3", "value": "reduction"}, {"measurement": "total EGFR and ErbB3 protein expression", "setting": "[4]; PUVA-treated rBT474 and rSKBR3", "value": "markedly reduced"}, {"measurement": "antitumor effect (growth)", "setting": "T47D cells; T47D cells transfected with empty vector alone", "value": "antitumor effect"}, {"measurement": "tumor cell apoptosis", "setting": "T47D cells; p85 expressing T47D cells", "value": "triggering tumor cell apoptosis"}, {"measurement": "p85ErbB2 phosphorylation", "setting": "p85^ErbB2", "value": "markedly inhibited"}]}, {"smiles": "Cc1c2occc2cc2c1oc(=O)c1cnccc12", "note": "[7-methylpyridopsoralen]", "values": [{"measurement": "growth and viability of ErbB2+ breast cancer cells", "setting": "[1]; upon photo-activation (UVA irradiation), 72 hr, BT474 and SKBR3", "value": "significantly inhibited"}, {"measurement": "phosphorylated and total ErbB2 protein expression", "setting": "ErbB2; upon photo-activation (UVA irradiation)", "value": "inhibition"}]}]}
